In PubChem BioAssay (NCI) one finds GI50 and TGI data, which are given here for ten compounds.

Among the test systems are ACHN renal; CCRF-CEM leukemia; HOP-62 NSCLC; MDA-MB-435; NCI-H226 lung; SNB-19 CNS; SW-620 colon; HOP-92 NSCLC.
Holding throughout (assay): NCI anticancer screen, dose series, 48 h

SMILES strings stand for the structures.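 48-hour exposure; five concentrations; linearly interpolated endpoints. Abbreviation: GI50, concentration required for 50% inhibition of growth. TGI is the concentration that stops growth completely.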

Consider `COc1ccc(O)c(C(=O)c2ccc(C(=O)O[C@@H]3CCCNC[C@H]3NC(=O)c3ccncc3)cc2)c1F`, for which the GI50 in the assay with ACHN renal was 1.49 µM; in the assay on CCRF-CEM leukemia, 0.313 µM; in the assay with HOP-62 NSCLC, 0.514 µM; in the assay with MDA-MB-435 it was 1.9 µM; in the assay on NCI-H226 lung, 1.68 µM; in the assay on SNB-19 CNS, 1.9 µM. Moreover, the TGI in the assay with ACHN renal is > 25 µM; in the assay with CCRF-CEM leukemia, > 6.03 µM; in the assay on HOP-62 NSCLC, > 25 µM; in the assay on MDA-MB-435 it was > 25 µM; in the assay on NCI-H226 lung, > 25 µM; in the assay on SNB-19 CNS, > 25 µM. The TGI in the assay on SW-620 colon was > 25 µM.

For `O=C1c2ccccc2C(=O)N1c1ccc(S(=O)(=O)Nc2ncccn2)cc1`, the GI50 with ACHN renal is > 100 µM; in the assay with CCRF-CEM leukemia it was 9.79 µM; in the assay with HOP-62 NSCLC it was > 100 µM; in the assay with MDA-MB-435, > 100 µM; with NCI-H226 lung it was > 100 µM; in the assay on SNB-19 CNS it was > 100 µM. The GI50 in the assay on SW-620 colon was > 100 µM. The TGI in the assay with ACHN renal, in the assay on CCRF-CEM leukemia, in the assay with HOP-62 NSCLC, with MDA-MB-435, in the assay on NCI-H226 lung and in the assay on SNB-19 CNS was > 100 µM throughout. Also, in the assay on SW-620 colon, the TGI is > 100 µM.

Take `COc1ccc2[nH]cc(-c3nc(-c4cn(C)c5ccncc45)cs3)c2c1`: the GI50 in the assay on ACHN renal was 1.82 µM; in the assay on CCRF-CEM leukemia, 2.33 µM; with HOP-62 NSCLC, 1.92 µM; in the assay on HOP-92 NSCLC it was 1.9 µM; in the assay on MDA-MB-435 it was 1.71 µM; with NCI-H226 lung, 18.3 µM. Moreover, the GI50 with SNB-19 CNS was 1.79 µM; with SW-620 colon it was 1.95 µM. The TGI with ACHN renal worked out at 3.21 µM; in the assay on CCRF-CEM leukemia, 6.25 µM; with HOP-62 NSCLC, 3.63 µM; in the assay on HOP-92 NSCLC it was 3.63 µM; in the assay with MDA-MB-435, 3.22 µM; in the assay with NCI-H226 lung, 45.9 µM. The TGI with SNB-19 CNS worked out at 3.57 µM; in the assay with SW-620 colon, 3.81 µM.

Turning to `C#C[C@]1(O)CC[C@H]2[C@@H]3CC=C4c5sc(N=C(N)N)nc5CC[C@]4(C)[C@H]3CC[C@@]21C`, the GI50 is 0.971 µM in the assay with ACHN renal; 0.365 µM in the assay on CCRF-CEM leukemia; 0.984 µM with HOP-62 NSCLC; 0.842 µM in the assay with HOP-92 NSCLC; 0.7 µM with MDA-MB-435; 1.82 µM in the assay on NCI-H226 lung. The GI50 was 1.11 µM in the assay on SNB-19 CNS and 0.541 µM in the assay with SW-620 colon. The TGI amounted to 2.21 µM in the assay on ACHN renal; 3.43 µM in the assay with CCRF-CEM leukemia; 2.62 µM with HOP-62 NSCLC; 2.37 µM in the assay on HOP-92 NSCLC; 2.01 µM in the assay with MDA-MB-435; 3.97 µM in the assay with NCI-H226 lung. For the same compound, the results for the TGI with SNB-19 CNS and in the assay on SW-620 colon were 2.41 µM and 1.96 µM, respectively.

With `CCC(Sc1nnc2c3ccccc3n(CC)c2n1)C(=O)Nc1ccccc1OC` (centres undefined), the GI50 is 83.8 µM in the assay on ACHN renal; > 94.9 µM with CCRF-CEM leukemia; 3.99 µM in the assay on HOP-62 NSCLC; 65.5 µM with HOP-92 NSCLC; > 100 µM in the assay with MDA-MB-435; 53.6 µM in the assay on NCI-H226 lung. Also, the GI50 in the assay with SNB-19 CNS and with SW-620 colon was > 100 µM each time. Also, the TGI in the assay on ACHN renal was > 100 µM; in the assay with CCRF-CEM leukemia it was > 100 µM; with HOP-62 NSCLC, > 71.9 µM; in the assay on HOP-92 NSCLC it was > 100 µM; in the assay on MDA-MB-435, > 100 µM; in the assay on NCI-H226 lung, > 100 µM. For the same compound, the TGI with SNB-19 CNS and in the assay on SW-620 colon was > 100 µM each time.

With `O=C(Nc1ccc(Br)cc1)Nc1n[nH]c2ccccc12`, the GI50 in the assay with ACHN renal was 23.3 µM; in the assay with CCRF-CEM leukemia, 6.8 µM; with HOP-62 NSCLC, > 100 µM; in the assay on HOP-92 NSCLC it was > 86.3 µM; with MDA-MB-435, > 100 µM; in the assay with NCI-H226 lung, > 91 µM. The GI50 in the assay on SNB-19 CNS and with SW-620 colon was > 100 µM each time. Moreover, the TGI in the assay with ACHN renal, in the assay with CCRF-CEM leukemia, in the assay on HOP-62 NSCLC, in the assay on HOP-92 NSCLC, in the assay with MDA-MB-435 and in the assay on NCI-H226 lung was > 100 µM in each case. Further, the TGI in the assay on SNB-19 CNS and with SW-620 colon was > 100 µM throughout.

As for `N#Cc1ccccc1C#C/C=C\C#Cc1ccc(OCCCNC(=O)c2cc3ccccc3[nH]2)cc1`, the GI50 with ACHN renal was 16.9 µM; with CCRF-CEM leukemia, 4.6 µM; in the assay with HOP-62 NSCLC, 14.9 µM; with MDA-MB-435, 19 µM; in the assay on NCI-H226 lung, 13.8 µM; in the assay with SNB-19 CNS it was 16.5 µM. Further, in the assay on SW-620 colon, the GI50 was 30.2 µM. For the same compound, the TGI with ACHN renal was 34.9 µM; in the assay on CCRF-CEM leukemia it was 44.3 µM; in the assay on HOP-62 NSCLC, 31.1 µM; with MDA-MB-435 it was 42.7 µM; in the assay with NCI-H226 lung, 31.9 µM; in the assay with SNB-19 CNS, 39.7 µM. Moreover, the TGI with SW-620 colon was > 100 µM.

Consider `O=C1OC(c2ccc(O)c(-c3ccccc3)c2)(c2ccc(O)c(-c3ccccc3)c2)c2c(Cl)c(Cl)c(Cl)c(Cl)c21`, for which the TGI in the assay with ACHN renal, in the assay on CCRF-CEM leukemia, with HOP-62 NSCLC, with HOP-92 NSCLC, in the assay on MDA-MB-435 and in the assay on NCI-H226 lung was > 100 µM throughout. The TGI in the assay with SNB-19 CNS and in the assay with SW-620 colon was > 100 µM in each case.

`CCc1c2c(nc3cc4c(cc13)OCO4)-c1cc3c(c(=O)n1C2)COC(=O)[C@@]3(CC)OC(=O)CN`: the GI50 in the assay with ACHN renal, in the assay on CCRF-CEM leukemia, in the assay on HOP-62 NSCLC, in the assay with MDA-MB-435, in the assay with NCI-H226 lung and in the assay with SNB-19 CNS was < 0.01 µM in each case. Further, the GI50 in the assay on SW-620 colon was < 0.013 µM. For the same compound, the TGI is < 0.01 µM in the assay on ACHN renal; < 0.01 µM in the assay with CCRF-CEM leukemia; < 0.01 µM in the assay with HOP-62 NSCLC; 1.23 µM with MDA-MB-435; < 0.01 µM with NCI-H226 lung.

As for `C=CC1CC12C(=O)C1OC2(C)C2C(=O)c3c(ccc4c3ccc3ccccc34)C(=O)C12` (centres undefined), the GI50 in the assay on ACHN renal is 27.5 µM; with CCRF-CEM leukemia it was 17.1 µM; in the assay on HOP-62 NSCLC, > 100 µM; in the assay on HOP-92 NSCLC it was 34.4 µM; in the assay on MDA-MB-435 it was 41.4 µM; in the assay with NCI-H226 lung it was 54.1 µM. In addition, the GI50 with SNB-19 CNS was > 100 µM. For the same compound, the TGI in the assay with ACHN renal was 88.1 µM; in the assay with CCRF-CEM leukemia it was > 100 µM; in the assay with HOP-62 NSCLC it was > 100 µM; in the assay with HOP-92 NSCLC it was > 100 µM; with MDA-MB-435, > 100 µM; in the assay on NCI-H226 lung, > 100 µM. The TGI in the assay on SNB-19 CNS is > 100 µM.
